Results from patent US20240336638A1, “IMIDAZOLE COMPOUND, AND INTERMEDIATE AND APPLICATION THEREOF” (priority 2021, published 2024).

What was measured:
[1] = system: AA-induced platelet aggregation; assay: Inhibitory effect on AA-induced platelet aggregation in rats in vitro (washed platelets); format: cell-based, rat; details: 1*10^−4 M
Description: Several experimental groups were established, including a blank control group, an AA (arachidonic acid) model control group, and various test compounds. Each test compound had three concentration groups: 10^−3 M, 10^−4 M, and 10^−5 M. The data from the blank and model control group were shared among the different drug concentration groups as a control.
Male SD rats were anesthetized with 3% chloral hydrate (300 mg/kg) through intraperitoneal injection. After being fixed in a supine position, the skin of the neck was cut about 3 cm, bluntly separated with a hemostat, and the trachea was exposed after the common carotid artery was separated. The distal end of the common carotid artery was ligated with a fine thread, and the proximal end was clamped with an arterial clamp for vascular intubation. After the intubation was fixed, the artery clamp was opened, and the blood was placed into a blood collection tube containing 3.8% trisodium citrate so that the blood was mixed well with the 3.8% trisodium citrate in a volume ratio of 9:1.
The prepared anticoagulant blood was mixed well and centrifuged for 10 minutes at 500 rpm, then the upper layer of plasma was aspirated to obtain platelet-rich plasma (PRP), and the PRP was centrifuged again for 5 minutes at 3,000 rpm. The supernatant was discarded, and the platelet precipitate was obtained, which was washed once with Ca^2+-free HEPES-Tyrode's buffer, then centrifuged at 3,000 rpm for 5 minutes. The supernatant was discarded, and the platelets were resuspended with Ca^2+-free HEPES-Tyrode's buffer to obtain the washed platelets.
First, 300 μL of Ca^2+-containing HEPES-Tyrode's solution was taken into the test cup, put into the test wells, and calibrated by pressing the “PPP” key. Subsequently, 240 μL of the washed platelets were added to the test cup, then added with 30 μL of different concentrations of drug solution, incubated for 10 minutes at 37° C. in a preheated bath, and then put into the test wells. 3 μL of 100× CaCl2 solution (final concentration of 0.2 g/L) and 30 μL of inducer (final concentration of AA of 800 μM) were added to the test wells, and then the “Start” key was pressed immediately. The maximum aggregation rate was recorded every 60 s. The measurement was repeated three times for each concentration for 10 minutes, and the aggregation curve was plotted.
The platelet aggregation inhibition rate was calculated with the following formula:
Inhibition rate (%)=(maximum aggregation rate in the model control group−maximum aggregation rate in the administration group)/maximum aggregation rate in the model control group×100%
All data were expressed as mean±standard deviation (mean±SD). SPSS 22.0 software was used for statistical analysis of the data. Intergroup data were analyzed using one-way ANOVA, with P<0.05 considered as statistically significant and P<0.01 considered as highly significant.

MCAO/R rats = assay: Therapeutic administration (i.v.) in middle cerebral artery occlusion/reperfusion (MCAO/R) rats; format: in vivo, rat; details: for Bleeding time / Brain water content (%) / Cerebral infarction rate (%) / Clotting time / Neurological function score: once a day for 3 days, mean ± SD, n = 8; for Neurological function score: modified Bederson score
Description: Male SD rats weighing 250 to 300 g were taken, and the rats in each group fasted for 12 hours before modeling, while water was not restricted. According to the method of Longa et al.^[1], a rat model of MCAO/R was established by occluding the blood flow of internal carotid artery using the thread embolization method. The rats were anesthetized with 3% chloral hydrate (300 mg/kg, 1 mL/100 g body weight) through intraperitoneal injection and fixed in the supine position on the operating table. A midline incision was made in the neck, and the right common carotid artery was isolated using forceps and threaded for later use. The external and internal carotid arteries were isolated from the bifurcation of the common carotid artery. A single thread was threaded through the internal carotid artery, and two threads were threaded through the external carotid artery. Both distal and proximal ends were ligated, and the middle part of the ligation site was cut using ophthalmic scissors. The proximal main trunk of the external carotid artery was isolated and reserved for later use. The prepared cotton thread was used to half-ligate the common carotid artery (tying a slipknot), and the thread prepared for the internal carotid artery was tightened with hemostatic forceps, temporarily occluding the blood flow of the internal carotid artery. A small incision at the proximal main trunk of the external carotid artery was made using ophthalmic scissors, and then, the fishing line was held with straight forceps, inserted from this incision, and slowly advanced through the isolated proximal main trunk of the external carotid artery towards the intracranial direction of the internal carotid artery. The advancement was stopped at a predetermined position, and then the thread of the internal carotid artery that was tightened with the hemostatic forceps was loosened. […] Another thread was threaded and tightened around the proximal main trunk of the external carotid artery and the fishing line that had already been inserted into the predetermined position. The half-ligated thread on the common carotid artery was then loosened, and the skin was subsequently sutured. After 2 hours of ischemia, a small section of the fishing line was pulled out. […] After rats in the blank control group were anesthetized, only the bifurcation of the internal and external carotid arteries was exposed without the occlusion of the MCA.
Successfully modeled rats (neurological function score of 3 after reperfusion) were taken and divided into 20 groups (8 rats for each) according to the random number table method. The groups were divided into a model control group, three dose groups (high, 12 mg/kg, 2.4 mg/mL; medium, 6 mg/kg, 1.2 mg/mL; low, 3 mg/kg, 0.6 mg/mL) for each of the six test compounds, and a positive drug Ozagrel group (6 mg/kg, 1.2 mg/mL), respectively. Both blank and model control groups were administered equal volumes of mixed solvents, and the rats in each group were administered by tail vein injection (i.v.) 2 hours after reperfusion, once a day for 3 consecutive days, with a volume of 0.5 mL/100 g body weight.
Ten minutes after the last administration, the neurological function of the animals was graded according to the modified Bederson scoring method. The standard is as follows[2]: • 0 point: no neurological symptoms; • 1 point: when the rat is suspended by lifting its tail, the forelimb on the surgical side of the rat was flexed and pressed against the chest wall; • 2 points: on a smooth plane, when the rat is pushed from the surgical side to the opposite side, the resistance is less than when it is moved to the same side; • 3 points: the animal moves around or in circles when moving freely; • 4 points: flaccid paralysis, no spontaneous movement of limbs.
After Bederson scoring, the rats were executed by cervical dislocation, and the whole brain was removed and weighed. After weighing, the whole brain was placed in a −20° C. refrigerator for 20 minutes. […]

[2] = medium dose 6 mg/kg i.v. (Ozagrel group 6 mg/kg)

| SMILES | significant inhibition of AA-induced platelet aggregation [1] | also measured |
| --- | --- | --- |
| Cc1cc([C@@H]2C[C@H]2C(=O)O)ccc1Cn1cnc(Cl)c1 [Compound 4, (1R,2R)-2-(4-((4-Chloro-1H-imidazol-1-yl)methyl)-3-methylphenyl)cyclopropane-1-carboxylic acid] | can significantly inhibit | – |
| Cc1cc(Cn2cnc(F)c2)ccc1[C@@H]1C[C@H]1C(=O)O [Compound 5, (1R,2R)-2-(4-((4-Fluoro-1H-imidazol-1-yl)methyl)-2-methylphenyl)cyclopropane-1-carboxylic acid] | can significantly inhibit | – |
| Cc1cc(Cn2ccnc2)ccc1[C@@H]1C[C@H]1C(=O)O [Compound 7, (1R,2R)-2-(4-((1H-Imidazol-1-yl)methyl)-2-methylphenyl)cyclopropane-1-carboxylic acid] | can significantly inhibit | – |
| Cc1cc([C@@H]2C[C@H]2C(=O)O)ccc1Cn1cnc(F)c1 [Compound 8, (1R,2R)-2-(4-((4-Fluoro-1H-imidazol-1-yl)methyl)-3-methylphenyl)cyclopropane-1-carboxylic acid] | can significantly inhibit | – |
| O=C(O)[C@@H]1C[C@H]1c1ccc(Cn2cnc(Cl)c2)cc1F [Compound 13, (1R,2R)-2-(4-((4-Chloro-1H-imidazol-1-yl)methyl)-2-fluorophenyl)cyclopropane-1-carboxylic acid] | can significantly inhibit | Bleeding time (MCAO/R rats; high dose 12 mg/kg i.v.): 301.25 ± 46.40 s; Brain water content (%) (MCAO/R rats; high dose 12 mg/kg i.v.): 80.73 ± 1.10%; Cerebral infarction rate (%) (MCAO/R rats; high dose 12 mg/kg i.v.): 14.30%; Clotting time (MCAO/R rats; high dose 12 mg/kg i.v.): 163.63 s; Neurological function score (MCAO/R rats; high dose 12 mg/kg i.v.): 1.50 ± 0.53; infarct size (MCAO/R rats; low dose): can also significantly reduce; Bleeding time (MCAO/R rats; low dose 3 mg/kg i.v.): 303.00 ± 39.59 s; Brain water content (%) (MCAO/R rats; low dose 3 mg/kg i.v.): 80.87 ± 2.84%; Cerebral infarction rate (%) (MCAO/R rats; low dose 3 mg/kg i.v.): 23.02%; Clotting time (MCAO/R rats; low dose 3 mg/kg i.v.): 146.94 ± 24.73 s; Neurological function score (MCAO/R rats; low dose 3 mg/kg i.v.): 2.00 ± 0.53; coagulation time of rats (MCAO/R rats; medium and high doses): can significantly prolong; Bleeding time (MCAO/R rats; [2]): 314.50 ± 41.83 s; Brain water content (%) (MCAO/R rats; [2]): 80.58 ± 1.56%; Cerebral infarction rate (%) (MCAO/R rats; [2]): 22.15%; Clotting time (MCAO/R rats; [2]): 164.56 s; Neurological function score (MCAO/R rats; [2]): 1.88 ± 0.64 |
| O=C(O)[C@@H]1C[C@H]1c1ccc(Cn2cnc(Cl)c2)c(F)c1 [Compound 14, (1R,2R)-2-(4-((4-Chloro-1H-imidazol-1-yl)methyl)-3-fluorophenyl)cyclopropane-1-carboxylic acid] | can significantly inhibit | – |
| O=C(O)[C@H]1C[C@@H]1c1ccc(Cn2ccnc2)cc1 [Compound 20, (1S,2S)-2-(4-((1H-Imidazol-1-yl)methyl)phenyl)cyclopropane-1-carboxylic acid] | can significantly inhibit | – |
| Cc1cc([C@H]2C[C@@H]2C(=O)O)ccc1Cn1cnc(Cl)c1 [Compound 24, (1S,2S)-2-(4-((4-Chloro-1H-imidazol-1-yl)methyl)-3-methylphenyl)cyclopropane-1-carboxylic acid] | can significantly inhibit | – |
| Cc1cc(Cn2cnc(F)c2)ccc1[C@H]1C[C@@H]1C(=O)O [Compound 25, (1S,2S)-2-(4-((4-Fluoro-1H-imidazol-1-yl)methyl)-2-methylphenyl)cyclopropane-1-carboxylic acid] | can significantly inhibit | – |
| Cc1cc(Cn2ccnc2)ccc1[C@H]1C[C@@H]1C(=O)O [Compound 27, (1S,2S)-2-(4-((1H-Imidazol-1-yl)methyl)-2-methylphenyl)cyclopropane-1-carboxylic acid] | can significantly inhibit | – |
| Cc1cc([C@H]2C[C@@H]2C(=O)O)ccc1Cn1cnc(F)c1 [Compound 28, (1S,2S)-2-(4-((4-Fluoro-1H-imidazol-1-yl)methyl)-3-methylphenyl)cyclopropane-1-carboxylic acid] | can significantly inhibit | – |
| O=C(O)[C@H]1C[C@@H]1c1ccc(Cn2cnc(Cl)c2)c(Cl)c1 [Compound 31, (1S,2S)-2-(3-Chloro-4-((4-chloro-1H-imidazol-1-yl)methyl)phenyl)cyclopropane-1-carboxylic acid] | can significantly inhibit | – |
| O=C(O)[C@H]1C[C@@H]1c1ccc(Cn2cnc(Cl)c2)cc1F [Compound 33, (1S,2S)-2-(4-((4-Chloro-1H-imidazol-1-yl)methyl)-2-fluorophenyl)cyclopropane-1-carboxylic acid] | can significantly inhibit | – |
| O=C(O)[C@H]1C[C@@H]1c1ccc(Cn2cnc(Cl)c2)c(F)c1 [Compound 34, (1S,2S)-2-(4-((4-Chloro-1H-imidazol-1-yl)methyl)-3-fluorophenyl)cyclopropane-1-carboxylic acid] | can significantly inhibit | – |
| O=C(O)[C@H]1C[C@@H]1c1ccc(Cn2ccnc2)c(F)c1 [Compound 35, (1S,2S)-2-(4-((1H-Imidazol-1-yl)methyl)-3-fluorophenyl)cyclopropane-1-carboxylic acid] | can significantly inhibit | – |
| O=C(O)[C@H]1C[C@@H]1c1ccc(Cn2cnc(F)c2)cc1F [Compound 37, (1S,2S)-2-(2-Fluoro-4-((4-fluoro-1H-imidazol-1-yl)methyl)phenyl)cyclopropane-1-carboxylic acid] | can significantly inhibit | – |
| O=C(O)[C@H]1C[C@@H]1c1ccc(Cn2cnc(F)c2)c(Cl)c1 [Compound 38, (1S,2S)-2-(3-Chloro-4-((4-fluoro-1H-imidazol-1-yl)methyl)phenyl)cyclopropane-1-carboxylic acid] | can significantly inhibit | – |
